Results from US20240150377A1, “MODULATORS OF CYSTIC FIBROSIS TRANSMEMBRANE CONDUCTANCE REGULATOR” (VERTEX PHARMACEUTICALS INCORPORATED, priority 2020, published 2024).
Where two headings read alike, the source gives them in different places. Values belong to the compound of their own block, whether it stands above or below them.

Target: T1, CFTR (Homo sapiens, UniProt P13569, DEL508-508)
T1 construct: endogenous in cells; host or cells: primary human bronchial epithelial cells from CF subjects (F508del/MF-HBE), differentiated at air-liquid interface
T1 sequence (P13569 with tags, fused parts or gaps DEL508-508): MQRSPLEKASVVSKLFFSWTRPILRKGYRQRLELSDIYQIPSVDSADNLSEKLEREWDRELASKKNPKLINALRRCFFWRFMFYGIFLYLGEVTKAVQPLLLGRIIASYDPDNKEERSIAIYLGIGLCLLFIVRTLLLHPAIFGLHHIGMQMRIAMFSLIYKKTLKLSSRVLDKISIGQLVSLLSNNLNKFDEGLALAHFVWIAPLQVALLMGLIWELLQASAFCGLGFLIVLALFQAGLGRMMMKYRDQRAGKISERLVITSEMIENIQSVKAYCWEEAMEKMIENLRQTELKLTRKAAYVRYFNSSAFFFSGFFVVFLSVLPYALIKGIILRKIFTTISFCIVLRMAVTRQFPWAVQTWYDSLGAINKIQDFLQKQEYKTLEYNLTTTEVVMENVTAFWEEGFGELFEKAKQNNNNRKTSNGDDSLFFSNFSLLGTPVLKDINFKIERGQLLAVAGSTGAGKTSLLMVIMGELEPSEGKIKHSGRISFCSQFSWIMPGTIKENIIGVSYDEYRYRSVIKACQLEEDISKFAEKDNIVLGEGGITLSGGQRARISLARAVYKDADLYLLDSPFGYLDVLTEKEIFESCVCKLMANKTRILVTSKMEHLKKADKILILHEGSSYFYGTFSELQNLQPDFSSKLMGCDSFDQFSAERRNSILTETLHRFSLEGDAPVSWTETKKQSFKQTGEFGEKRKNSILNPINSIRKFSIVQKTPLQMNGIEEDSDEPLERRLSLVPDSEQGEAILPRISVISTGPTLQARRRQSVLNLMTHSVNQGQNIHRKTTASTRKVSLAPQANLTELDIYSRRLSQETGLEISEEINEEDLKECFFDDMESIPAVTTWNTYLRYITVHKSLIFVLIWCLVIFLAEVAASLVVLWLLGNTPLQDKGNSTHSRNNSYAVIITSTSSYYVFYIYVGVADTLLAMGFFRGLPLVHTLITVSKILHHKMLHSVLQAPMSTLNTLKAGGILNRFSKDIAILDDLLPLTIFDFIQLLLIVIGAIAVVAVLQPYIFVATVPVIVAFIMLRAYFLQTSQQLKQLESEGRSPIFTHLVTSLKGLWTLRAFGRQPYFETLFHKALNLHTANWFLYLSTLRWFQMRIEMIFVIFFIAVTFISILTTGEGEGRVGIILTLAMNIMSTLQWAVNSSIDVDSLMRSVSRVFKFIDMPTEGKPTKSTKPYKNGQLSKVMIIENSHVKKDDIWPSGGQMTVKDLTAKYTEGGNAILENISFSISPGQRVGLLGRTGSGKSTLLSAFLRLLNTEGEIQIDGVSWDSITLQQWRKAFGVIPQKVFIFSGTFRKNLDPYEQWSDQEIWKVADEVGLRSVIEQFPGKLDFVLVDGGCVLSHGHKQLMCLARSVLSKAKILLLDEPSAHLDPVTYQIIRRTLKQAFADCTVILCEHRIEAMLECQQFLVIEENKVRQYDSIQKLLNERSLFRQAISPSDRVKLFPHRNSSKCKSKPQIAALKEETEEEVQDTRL
Assay: HBE assay: Ussing chamber assay of CFTR-mediated short-circuit currents
Type: cell-based
Method in brief: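 CFTR-mediated Isc (μA/cm²) equals the peak response to apical 20 μM forskolin minus the residual after a 20 μM each BPO/GlyH-101/CFTR inhibitor 172 cocktail, recorded in Ussing chambers at Vhold 0 mV, 37 °C, pH 7.4, with 30 μM apical amiloride. Cells were F508del/MF HBE cultures preincubated 18-24 h with corrector (concentration range or 10 μM) plus 1 μM ivacaftor in 20% human serum.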

[1] = Table 10, at 10 μM, read-out: HBE activity at 10 (μM) (%)
[2] = Table 12, read-out: HBE Max Activity (%)
[3] = HBE assay, read-out: HBE Max activity (%)
[4] = HBE assay, 10 μM, read-out: HBE Activity at 10 μM (%)
[5] = Table 13, at 10 μM, read-out: HBE Activity at 10 μM (%)
[6] = Table 13, read-out: HBE Max Activity (%)
[7] = Table 10, read-out: HBE Max activity (%)
[8] = Table 11, read-out: HBE Max Activity (%)
[9] = Table 12, at 10 μM, read-out: HBE Activity at 10 μM (%)

activation at 10 µM [1]: > 60%
SMILES: Cc1cccc(C)c1-c1cc2nc(n1)NS(=O)(=O)c1cccc(c1)C(=O)N(Cc1ccc(-c3cc[nH]n3)cc1)[C@H](CC(C)(C)C)CO2 [Compound 290]

EC50 (Table 12, read-out: HBE EC50): < 1 µM
Emax [2]: > 60%
SMILES: Cc1cccc(C)c1-c1cc2nc(n1)NS(=O)(=O)c1cccc(c1)C(=O)N(Cc1cccc(N3CCC[C@@H]3CO)n1)[C@H](CC(C)(C)C)CO2 [Compound 280]

EC50 (HBE assay, read-out: HBE EC50): < 1 µM
Emax [3]: > 60%
SMILES: Cc1cccc(C)c1-c1cc2nc(n1)NS(=O)(=O)c1cccc(c1)C(=O)N(Cc1ncc(N3CCC(C)(C)C3)cn1)[C@H](CC1CCC1)CO2 [Compound 1477]

EC50 (HBE assay, read-out: HBE EC50): < 1 µM
Emax [3]: > 60%
SMILES: Cc1cccc(C)c1-c1cc2nc(n1)NS(=O)(=O)c1cccc(c1)C(=O)N(Cc1cccc(N3C4CCC3CC4)n1)[C@H](CC(C)(C)C)CO2 [Compound 1398]

activation at 10 µM [4]: > 60%
SMILES: Cc1cccc(C)c1-c1cc2nc(n1)NS(=O)(=O)c1cccc(c1)C(=O)N(Cc1ncc(OC3CCC3)cn1)[C@H](CC(C)(C)F)CO2 [Compound 1509]

EC50 (HBE assay, read-out: HBE EC50): < 1 µM
Emax [3]: > 60%
SMILES: CC[C@H](C)[C@@H]1COc2cc(-c3c(C)cccc3C)nc(n2)NS(=O)(=O)c2cccc(c2)C(=O)N1Cc1ncc(OC(C)C)cn1 [Compound 1471]

activation at 10 µM [5]: > 600%
SMILES: Cc1cccc(C)c1-c1cc2nc(n1)NS(=O)(=O)c1cccc(c1)C(=O)N(CC(=O)N1CCC(C(C)(C)C)CC1)[C@H](CC(C)(C)C)CO2 [Compound 210]

EC50 (Table 13, read-out: HBE EC50): < 1 µM
Emax [6]: > 60%
SMILES: Cc1cccc(C)c1-c1cc2nc(n1)NS(=O)(=O)c1cccc(c1)C(=O)N(Cc1ncc(C3CC4(COC4)C3)cn1)[C@H](CC(C)(C)C)CO2 [Compound 161]

EC50 (Table 10, read-out: HBE EC50): < 1 µM
Emax [7]: > 60%
SMILES: Cc1cccc(C)c1-c1cc2nc(n1)NS(=O)(=O)c1cccc(c1)C(=O)N(CC1CCC(O)(C(F)(F)F)CC1)[C@H](CC(C)(C)C)CO2 (some centres unmarked) [Compound 905]

EC50 (Table 12, read-out: HBE EC50): < 1 µM
Emax [2]: > 60%
SMILES: Cc1cccc(C)c1-c1cc2nc(n1)NS(=O)(=O)c1cccc(c1)C(=O)N(Cc1ncc(N3CC4CC3CO4)cn1)[C@H](CC(C)(C)C)CO2 (some centres unmarked) [Compound 545]

EC50 (HBE assay, read-out: HBE EC50): < 1 µM
Emax [3]: > 60%
SMILES: Cc1cccc(C)c1-c1cc2nc(n1)NS(=O)(=O)c1cccc(c1)C(=O)N(Cc1cccc(N3CCOCC(C)(C)C3)n1)[C@H](CC(C)(C)C)CO2 [Compound 1414]

EC50 (Table 11, read-out: HBE EC50): < 1 µM
Emax [8]: > 60%
SMILES: Cc1cccc(C)c1-c1cc2nc(n1)NS(=O)(=O)c1cccc(c1)C(=O)N(Cc1cccc(N3CC(C)(C)C3)n1)[C@H](CC(C)(C)C)CO2 [Compound 632]

EC50 (Table 12, read-out: HBE EC50): < 1 µM
Emax [2]: > 60%
SMILES: Cc1cccc(C)c1-c1cc2nc(n1)NS(=O)(=O)c1cccc(c1)C(=O)N(Cc1cccc(N(C)C3CC4(CC4)C3)n1)[C@H](CC(C)(C)C)CO2 [Compound 581]

EC50 (Table 13, read-out: HBE EC50): < 1 µM
Emax [6]: > 60%
SMILES: Cc1ccc(F)c(CN2C(=O)c3cccc(c3)S(=O)(=O)Nc3nc(cc(-c4c(C)cccc4C)n3)OC[C@H]2CC(C)(C)C)n1 [Compound 1113]

EC50 (Table 11, read-out: HBE EC50): 1 to 3 µM
Emax [8]: > 60%
SMILES: COCCN(C)c1cnc(CN2C(=O)c3cccc(c3)S(=O)(=O)Nc3nc(cc(-c4c(C)cccc4C)n3)OC[C@H]2CC(C)(C)C)cn1 [Compound 900]

EC50 (Table 13, read-out: HBE EC50): < 1 µM
Emax [6]: > 60%
SMILES: Cc1cccc(C)c1-c1cc2nc(n1)NS(=O)(=O)c1cccc(c1)C(=O)N(Cc1cccc(N3CCC34CCC(C)(C)C4)n1)[C@H](CC(C)(C)C)CO2 (some centres unmarked) [Compound 531]

activation at 10 µM [4]: > 60%
SMILES: Cc1cccc(C)c1-c1cc2nc(n1)NS(=O)(=O)c1cccc(c1)C(=O)N(Cc1ccc3c(C4CC4)cn(C)c3n1)[C@H](CC(C)(C)C)CO2 [Compound 1303, (11R)-12-[(3-Cyclopropyl-1-methyl-pyrrolo[2,3-b]pyridin-6-yl)methyl]-6-(2,6-dimethylphenyl)-11-(2,2-dimethylpropyl)-2,2-dioxo-9-oxa-2λ^6-thia-3,5,12,19-tetrazatricyclo[12.3.1.14,8]nonadeca-1(18),4(19),5,7,14,16-hexaen-13-one]

SMILES: Cc1cccc(C)c1-c1cc2nc(n1)NS(=O)(=O)c1cccc(c1)C(=O)N(Cc1cccc(N3CCC[C@H]3C3CC3)n1)[C@H](CC(C)(C)C)CO2 [Compound 1497]
EC50 (HBE EC50 (μM), HBE assay): < 1 µM
Emax (read-out: HBE Max activity (%)): > 60%

Emax [7]: > 60%
SMILES: Cc1cccc(C)c1-c1cc2nc(n1)NS(=O)(=O)c1cccc(c1)C(=O)N(Cc1ccc(C(C)(C)C)nc1)[C@H](CC(C)(C)C)CO2 [Compound 1074]

EC50 (Table 10, read-out: HBE EC50): < 1 µM
Emax [7]: > 60%
SMILES: Cc1cccc(C)c1-c1cc2nc(n1)NS(=O)(=O)c1cc(n(C)n1)C(=O)N(Cc1ccc(N3CCOCC3)cc1)[C@H](CC(C)(C)C)CO2 [Compound 906]

activation at 10 µM [9]: > 600%
SMILES: COCC(C)N(C)c1ccnc(CN2C(=O)c3cccc(c3)S(=O)(=O)Nc3nc(cc(-c4c(C)cccc4C)n3)OC[C@H]2CC(C)(C)C)n1 (some centres unmarked) [Compound 448]

activation at 10 µM [1]: > 60%
SMILES: COc1c(F)cc(CN2C(=O)c3cccc(c3)S(=O)(=O)Nc3nc(cc(-c4c(C)cccc4C)n3)OC[C@H]2CC(C)(C)C)cc1F [Compound 769]

EC50 (HBE assay, read-out: HBE EC50): < 1 µM
Emax [3]: > 60%
SMILES: CCC(C)Oc1cnc(CN2C(=O)c3cccc(c3)S(=O)(=O)Nc3nc(cc(-c4c(C)cccc4C)n3)OC[C@H]2CC(C)(C)C)nc1 (some centres unmarked) [Compound 1345]

activation at 10 µM [1]: > 60%
SMILES: Cc1cccc(C)c1-c1cc2nc(n1)NS(=O)(=O)c1cccc(c1)C(=O)N(Cc1ccnn1C)[C@H](CC(C)(C)C)CO2 [Compound 827]

EC50 (Table 12, read-out: HBE EC50): < 1 µM
Emax [2]: > 60%
SMILES: Cc1cccc(C)c1-c1cc2nc(n1)NS(=O)(=O)c1cccc(c1)C(=O)N(Cc1ncc(N3CCC4(COC4)C3)cn1)[C@H](CC(C)(C)C)CO2 [Compound 580]

activation at 10 µM [4]: > 60%
SMILES: CC(=O)Nc1cnc(CN2C(=O)c3cccc(c3)S(=O)(=O)Nc3nc(cc(-c4c(C)cccc4C)n3)OC[C@H]2CC(C)(C)C)nc1 [Compound 1513]

activation at 10 µM [5]: > 600%
SMILES: Cc1cccc(C)c1-c1cc2nc(n1)NS(=O)(=O)c1cccc(c1)C(=O)N(CC(=O)N1C[C@@H](C)[C@@H](C)C1)[C@H](CC(C)(C)C)CO2 [Compound 202]

activation at 10 µM [9]: > 600%
SMILES: Cc1cccc(C)c1-c1cc2nc(n1)NS(=O)(=O)c1cccc(c1)C(=O)N(Cc1cc3n(n1)CCCO3)[C@H](CC(C)(C)C)CO2 [Compound 456]

EC50 (Table 12, read-out: HBE EC50): < 1 µM
Emax [2]: > 60%
SMILES: Cc1cccc(C)c1-c1cc2nc(n1)NS(=O)(=O)c1cccc(c1)C(=O)C(Cc1ccc(C3CCCOC3)cn1)[C@H](CC(C)(C)C)CO2 (some centres unmarked) [Compound 1065]

EC50 (Table 13, read-out: HBE EC50): < 1 µM
Emax [6]: > 60%
SMILES: Cc1cccc(C)c1-c1cc2nc(n1)NS(=O)(=O)c1cccc(n1)C(=O)N(Cc1ncc(N3CCC(C)(C)C3=O)cn1)[C@H](CC(C)(C)C)CO2 [Compound 1141]

EC50 (HBE assay, read-out: HBE EC50): < 1 µM
Emax [3]: > 60%
SMILES: COCC(C)Oc1cnc(CN2C(=O)c3cccc(c3)S(=O)(=O)Nc3nc(cc(-c4c(C)cccc4C)n3)OC[C@H]2CC(C)(C)C)nc1 (some centres unmarked) [Compound 1344]

EC50 (Table 12, read-out: HBE EC50): < 1 µM
Emax [2]: > 60%
SMILES: Cc1cccc(C)c1-c1cc2nc(n1)NS(=O)(=O)c1cccc(c1)C(=O)N(Cc1nc3ccccc3n1C)[C@H](CC(C)(C)C)CO2 [Compound 268]

activation at 10 µM [5]: 30 to 60%
SMILES: Cc1cccc(C)c1-c1cc2nc(n1)NS(=O)(=O)c1cccc(c1)C(=O)N(CC(=O)N1CC3(CCC3)C1)[C@H](CC(C)(C)C)CO2 [Compound 170]

EC50 (Table 11, read-out: HBE EC50): < 1 µM
Emax [8]: > 60%
SMILES: Cc1cccc(C)c1-c1cc2nc(n1)NS(=O)(=O)c1cccc(c1)C(=O)N(Cc1cccc(C3CCOCC3)n1)[C@H](CC(C)(C)C)CO2 [Compound 728]
